This is an account of results in US20260001888A1, “PYRAZOLOPYRIMIDINE PDE9 INHIBITORS” (Merck Sharp & Dohme LLC, priority 2018, published 2026).

pKi: −log10 of the molar value.

In this test the target is Human PDE9 (PDE9A2) (Homo sapiens (Human), UniProt O76083). The test can be described thus: PDE9 IMAP fluorescence polarization (FP) inhibition assay. Conditions: apparent inhibition constant; human PDE9A2, FAM-cGMP substrate 50 nM, room temperature. In kind it is biochemical. The method in brief: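 N-terminal GST-tagged full-length PDE9A2 membrane prep (0.5 ng/ml final) preincubated 30 min with compound at room temperature, then 50 nM FAM-cGMP added for 60 min; IMAP binding reagent stops reaction, FP read after 1 h. Controls: known PDE9 inhibitor (100%), 1% DMSO (0%). KI from four-parameter fit.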
Human PDE9 (PDE9A2), sequence (O76083 other isoform, or with tags, fused parts or gaps): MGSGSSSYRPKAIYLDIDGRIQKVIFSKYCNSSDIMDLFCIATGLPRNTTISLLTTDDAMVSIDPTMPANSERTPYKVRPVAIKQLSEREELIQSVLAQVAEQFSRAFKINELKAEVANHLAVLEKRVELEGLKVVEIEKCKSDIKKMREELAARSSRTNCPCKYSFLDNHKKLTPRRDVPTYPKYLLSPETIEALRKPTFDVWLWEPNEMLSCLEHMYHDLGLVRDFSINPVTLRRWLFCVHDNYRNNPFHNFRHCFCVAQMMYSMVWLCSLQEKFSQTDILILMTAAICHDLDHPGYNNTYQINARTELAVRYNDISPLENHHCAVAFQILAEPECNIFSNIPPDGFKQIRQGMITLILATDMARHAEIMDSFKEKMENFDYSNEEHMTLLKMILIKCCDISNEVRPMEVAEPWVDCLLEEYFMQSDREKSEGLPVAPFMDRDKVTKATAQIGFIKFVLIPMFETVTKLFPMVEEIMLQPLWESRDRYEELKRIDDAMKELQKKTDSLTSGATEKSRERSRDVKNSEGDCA
Background: Fluorescence polarisation rises when a labelled molecule tumbles more slowly, as on binding a larger partner.
Consider `CC(Cc1nc2c(c(C#N)nn2C(C)c2ccc(C(F)(F)F)nc2)c(=O)[nH]1)c1ncccn1` (single isomer, unassigned) [Example 86, 4-oxo-6-(2-(pyrimidin-2-yl)propyl)-1-(1-(6-(trifluoromethyl)pyridin-3-yl)ethyl)-4,5-dihydro-1H-pyrazolo[3,4-d]pyrimidine-3-carbonitrile], for which the pKi is 7.48.
Turning to `CCC(c1ncc(F)cn1)N(C)c1nc2c(c(C#N)nn2C(C)c2ccc(C3CC3)nc2)c(=O)[nH]1` (single isomer, unassigned) [Example 66, 1-[1-(6-cyclopropyl-3-pyridyl)ethyl]-6-[1-(5-fluoropyrimidin-2-yl)propyl-methyl-amino]-4-oxo-5H-pyrazolo[3,4-d]pyrimidine-3-carbonitrile], the pKi is 9.22.
As for `CCC(Cc1nc2c(c(C#N)nn2C(C)c2ccc(C(F)(F)F)nc2)c(=O)[nH]1)c1ncccn1` (single isomer, unassigned) [Example 87, 4-oxo-6-(2-(pyrimidin-2-yl)butyl)-1-(1-(6-(trifluoromethyl)pyridin-3-yl)ethyl)-4,5-dihydro-1H-pyrazolo[3,4-d]pyrimidine-3-carbonitrile], the pKi is 7.03.
On to `C=CCCC(c1ncccn1)N(C)c1nc2c(c(C#N)nn2C(C)c2ccc(C(F)(F)F)nc2)c(=O)[nH]1` (single isomer, unassigned) [Example 43, 6-[methyl(1-pyrimidin-2-ylpent-4-enyl)amino]-4-oxo-1-[1-[6-(trifluoromethyl)-3-pyridyl]ethyl]-5H-pyrazolo[3,4-d]pyrimidine-3-carbonitrile], for which the pKi is 7.41.
In the case of `CCC(c1ncc(F)cn1)N(C)c1nc2c(c(C#N)nn2C(C)c2ccc(C3CC3)cc2)c(=O)[nH]1` (single isomer, unassigned) [Example 67, 1-[1-(4-cyclopropylphenyl)ethyl]-6-[1-(5-fluoropyrimidin-2-yl)propyl-methyl-amino]-4-oxo-5H-pyrazolo[3,4-d]pyrimidine-3-carbonitrile], the pKi was 9.15.
Then `CCC(c1ccc(F)cn1)N(C)c1nc2c(c(C#N)nn2C(C)c2ccc(C(F)(F)F)nc2)c(=O)[nH]1` (single isomer, unassigned) [Example 36, 6-[1-(5-fluoro-2-pyridyl)propyl-methyl-amino]-4-oxo-1-[1-[6-(trifluoromethyl)-3-pyridyl]ethyl]-5H-pyrazolo[3,4-d]pyrimidine-3-carbonitrile], with 7.70.
Then `CC(c1ccc(C(F)(F)F)nc1)n1nc(C#N)c2c(=O)[nH]c(CCc3ncc(C4CC4)cn3)nc21` (single isomer, unassigned) [Example 81, 6-(2-(5-cyclopropylpyrimidin-2-yl)ethyl)-4-oxo-1-(1-(6-(trifluoromethyl)pyridin-3-yl)ethyl)-4,5-dihydro-1H-pyrazolo[3,4-d]pyrimidine-3-carbonitrile], with 9.30; and `CCC(c1ncccn1)N(C)c1nc2c(c(C#N)nn2C(C)c2ccc(C3CC3)nc2)c(=O)[nH]1` (single isomer, unassigned) [Example 2, 1-(1-(6-Cyclopropylpyridin-3-yl)ethyl)-6-(methyl(1-(pyrimidin-2-yl)propyl)amino)-4-oxo-4,5-dihydro-1H-pyrazolo[3,4-d]pyrimidine-3-carbonitrile], with 8.28.
Then `CCC(c1ncc(F)cn1)N(C)c1nc2c(c(C#N)nn2C(C)c2ccc(C3CC3)cc2)c(=O)[nH]1` (single isomer, unassigned) [Example 68, 1-[1-(4-cyclopropylphenyl)ethyl]-6-[1-(5-fluoropyrimidin-2-yl)propyl-methyl-amino]-4-oxo-5H-pyrazolo[3,4-d]pyrimidine-3-carbonitrile], with 9.14; and `CCC(c1ncc(C(F)F)cn1)N(C)c1nc2c(c(C#N)nn2C(C)c2ccc(C(F)(F)F)nc2)c(=O)[nH]1` (single isomer, unassigned) [Example 20, 6-[1-[5-(difluoromethyl)pyrimidin-2-yl]propyl-methyl-amino]-4-oxo-1-[1-[6-(trifluoromethyl)-3-pyridyl]ethyl]-5H-pyrazolo[3,4-d]pyrimidine-3-carbonitrile], with 8.80.
`CCC(c1ncccn1)N(C)c1nc2c(c(C#N)nn2C(C)c2ccc(C(F)(F)F)nc2)c(=O)[nH]1` (single isomer, unassigned) [Example 10, 6-[methyl(1-pyrimidin-2-ylpropyl)amino]-4-oxo-1-[1-[6-(trifluoromethyl)-3-pyridyl]ethyl]-5H-pyrazolo[3,4-d]pyrimidine-3-carbonitrile]: the pKi is 8.00.
Regarding `CCC(c1ncccn1)N(C)c1nc2c(c(C#N)nn2C(C)c2ccc(C3CC3)nc2)c(=O)[nH]1` (single isomer, unassigned) [Example 4, 1-(1-(6-Cyclopropylpyridin-3-yl)ethyl)-6-(methyl(1-(pyrimidin-2-yl)propyl)amino)-4-oxo-4,5-dihydro-1H-pyrazolo[3,4-d]pyrimidine-3-carbonitrile], the pKi is 10.52.
Turning to `CC(c1ccc(C(F)(F)F)nc1)n1nc(C#N)c2c(=O)[nH]c(N3CCC3c3ccc(F)cc3)nc21` (single isomer, unassigned) [Example 58, 6-[2-(4-fluorophenyl)azetidin-1-yl]-4-oxo-1-[1-[6-(trifluoromethyl)-3-pyridyl]ethyl]-5H-pyrazolo[3,4-d]pyrimidine-3-carbonitrile], the pKi is 8.11.
The result for `CCC(Cc1nc2c(c(C#N)nn2C(C)c2ccc(C(F)(F)F)nc2)c(=O)[nH]1)c1ncccn1` (single isomer, unassigned) [Example 88, 4-oxo-6-(2-(pyrimidin-2-yl)butyl)-1-(1-(6-(trifluoromethyl)pyridin-3-yl)ethyl)-4,5-dihydro-1H-pyrazolo[3,4-d]pyrimidine-3-carbonitrile] reads 6.97; that for `CC(c1ncccn1)N(C)c1nc2c(c(C#N)nn2C(C)c2ccc(C(F)(F)F)nc2)c(=O)[nH]1` (single isomer, unassigned) [Example 5, 6-[methyl(1-pyrimidin-2-ylethyl)amino]-4-oxo-1-[1-[6-(trifluoromethyl)-3-pyridyl]ethyl]-5H-pyrazolo[3,4-d]pyrimidine-3-carbonitrile], 8.64.
Then `CCC(c1ncccn1)N(C)c1nc2c(c(C#N)nn2C(C)c2ccc(C(F)(F)F)cc2)c(=O)[nH]1` (single isomer, unassigned) [Example 13, 6-[methyl(1-pyrimidin-2-ylpropyl)amino]-4-oxo-1-[1-[4-(trifluoromethyl)phenyl]ethyl]-5H-pyrazolo[3,4-d]pyrimidine-3-carbonitrile], with 8.28.
As to `CCC(c1ncc(F)cn1)N(C)c1nc2c(c(C#N)nn2C(C)C2CCOCC2)c(=O)[nH]1` (single isomer, unassigned) [Example 38, 6-[1-(5-fluoropyrimidin-2-yl)propyl-methyl-amino]-4-oxo-1-(1-tetrahydropyran-4-ylethyl)-5H-pyrazolo[3,4-d]pyrimidine-3-carbonitrile], the pKi was 8.08.
Regarding `CCC(c1ncc(F)cn1)N(C)c1nc2c(c(C#N)nn2C(C)c2ccc(C(F)(F)F)nc2)c(=O)[nH]1` (single isomer, unassigned) [Example 78, 6-((1-(5-fluoropyrimidin-2-yl)propyl)(methyl)amino)-4-oxo-1-(1-(6-(trifluoromethyl)pyridin-3-yl)ethyl)-4,5-dihydro-1H-pyrazolo[3,4-d]pyrimidine-3-carbonitrile], the pKi is 7.47.

Broadly, the pKi is the Ki on a negative log10 scale, so that one unit is a factor of ten.
